In PubChem BioAssay (NCI):
Values joined by “and” are separate entries in the source; they are usually repeats but may differ in a detail not shown here. Equal values may be shown once.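 The compound was tested at five concentrations on cells cultured in 96-well plates, with a 48-hour exposure period. Here, GI50 denotes the concentration required for 50% inhibition of growth. Definition used: TGI = concentration required for complete inhibition of growth.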

How the values were obtained:
Experiment in all cases: NCI tumour cell line growth inhibition, 48 h
SF-295 CNS = tested on: SF-295 CNS
A549 NSCLC = tested on: A549 NSCLC
HCC-2998 colon = tested on: HCC-2998 colon
CAKI-1 renal = tested on: CAKI-1 renal
RXF 393 renal = tested on: RXF 393 renal
786-0 renal = tested on: 786-0 renal
MDA-MB-435 = tested on: MDA-MB-435
SR leukemia = tested on: SR leukemia
MDA-MB-231 breast = tested on: MDA-MB-231 breast
MALME-3M melanoma = tested on: MALME-3M melanoma

`O=C(Nc1cccnc1)c1cccc([N+](=O)[O-])c1` was tested, and the GI50 (SF-295 CNS) was over 100 µM, the TGI (SF-295 CNS) was over 100 µM and the GI50 (A549 NSCLC) was over 100 µM. For the same compound, the TGI (A549 NSCLC) was over 100 µM, the GI50 (HCC-2998 colon) was over 100 µM and the TGI (HCC-2998 colon) was over 100 µM. It also gave a GI50 (CAKI-1 renal) of over 100 µM, a TGI (CAKI-1 renal) of over 100 µM and a GI50 (RXF 393 renal) of over 100 µM. For the same compound, the TGI (RXF 393 renal) was over 100 µM, the GI50 (786-0 renal) was over 100 µM and the TGI (786-0 renal) was over 100 µM. The GI50 (MDA-MB-435) was over 100 µM, the TGI (MDA-MB-435) was over 100 µM and the GI50 (SR leukemia) was over 100 µM. The TGI (SR leukemia) was over 100 µM, the GI50 (MDA-MB-231 breast) was over 100 µM and the TGI (MDA-MB-231 breast) was over 100 µM. For the same compound, the GI50 (MALME-3M melanoma) was over 100 µM and the TGI (MALME-3M melanoma) was over 100 µM.
Compound `c1ccc2c(-c3nc4ccccc4[nH]3)cccc2c1` has a GI50 (SF-295 CNS) of 2.98 µM, a TGI (SF-295 CNS) of 29.1 µM and a GI50 (A549 NSCLC) of 4.36 µM. The TGI (A549 NSCLC) was over 100 µM, the GI50 (HCC-2998 colon) was 6.96 µM and the TGI (HCC-2998 colon) was over 100 µM. For the same compound, the GI50 (CAKI-1 renal) was 3.18 µM, the TGI (CAKI-1 renal) was over 100 µM and the GI50 (RXF 393 renal) was 2.58 µM. The TGI (RXF 393 renal) was 12 µM, the GI50 (786-0 renal) was 5.5 µM and the TGI (786-0 renal) was over 100 µM. For the same compound, the GI50 (MDA-MB-435) was 0.309 µM, the TGI (MDA-MB-435) was 1.44 µM and the GI50 (SR leukemia) was 1.42 µM. For the same compound, the TGI (SR leukemia) was 21.4 µM, the GI50 (MDA-MB-231 breast) was 9.65 µM and the TGI (MDA-MB-231 breast) was over 100 µM. For the same compound, the GI50 (MALME-3M melanoma) was 3.81 µM and the TGI (MALME-3M melanoma) was 34.9 µM.
With `C/C=C(\CCC1NCCc2c1[nH]c1ccccc21)[Si](C)(C)C` (stereo not given) the GI50 (SF-295 CNS) was 7.13 µM and 2.32 µM, the TGI (SF-295 CNS) was 17.5 µM and 5.52 µM and the TGI (A549 NSCLC) was 24.9 µM and 21 µM. For the same compound, the GI50 (HCC-2998 colon) was 5.5 µM and 1.78 µM, the TGI (HCC-2998 colon) was 9.91 µM and 3.3 µM and the GI50 (CAKI-1 renal) was 7.02 µM and 2.72 µM. For the same compound, the TGI (CAKI-1 renal) was 21.4 µM and 11 µM, the TGI (RXF 393 renal) was 17.6 µM and 2.53 µM and the GI50 (786-0 renal) was 5.26 µM and 1.81 µM. The TGI (786-0 renal) was 9.79 µM and 3.34 µM, the TGI (MDA-MB-435) was 11.1 µM and the GI50 (SR leukemia) was 8.12 µM and 2.7 µM. For the same compound, the TGI (SR leukemia) was 18.4 µM and 8.42 µM, the TGI (MDA-MB-231 breast) was 4.56 µM and the TGI (MALME-3M melanoma) was 7.1 µM and 3.23 µM.
`O=C(NCC(=O)N1CC[C@H](NC2CCC(O)(c3ccc(-c4ncccn4)cn3)CC2)C1)c1cccc(C(F)(F)F)c1` (stereo not given in full) showed a GI50 (SF-295 CNS) of 38.2 µM, a TGI (SF-295 CNS) of over 100 µM and a GI50 (A549 NSCLC) of over 100 µM. For the same compound, the TGI (A549 NSCLC) was over 100 µM, the GI50 (HCC-2998 colon) was over 100 µM and the TGI (HCC-2998 colon) was over 100 µM. For the same compound, the GI50 (CAKI-1 renal) was 45.7 µM, the TGI (CAKI-1 renal) was over 100 µM and the GI50 (RXF 393 renal) was 61.7 µM. For the same compound, the TGI (RXF 393 renal) was over 100 µM, the GI50 (786-0 renal) was over 100 µM and the TGI (786-0 renal) was over 100 µM. For the same compound, the GI50 (MDA-MB-435) was over 100 µM, the TGI (MDA-MB-435) was over 100 µM and the GI50 (SR leukemia) was 25.4 µM. For the same compound, the TGI (SR leukemia) was over 100 µM, the GI50 (MDA-MB-231 breast) was 49.5 µM and the TGI (MDA-MB-231 breast) was over 100 µM. For the same compound, the GI50 (MALME-3M melanoma) was 37.1 µM and the TGI (MALME-3M melanoma) was over 100 µM.
